Patent publication US9120820B2, “Fluorescent molecular probes for use in assays that measure test compound competitive binding with SAM-utilizing proteins” (CAYMAN CHEMICAL COMPANY, INCORPORATED, priority 2011, dated 2015)
Blank lines part the entries; values can stand above or below the compound they belong to.

Assays:
[1] = molecular target: T1, SET7/9 (Homo sapiens, UniProt Q8WTS6); assay: Sinefungin Probe 1A competition FP assay with SET7/9; format: binding; conditions: for IC50: read-out: IC50 for displacement of Sinefungin Probe 1A
T1 construct: purchased Cayman 10320
T1 sequence (Q8WTS6 1-366): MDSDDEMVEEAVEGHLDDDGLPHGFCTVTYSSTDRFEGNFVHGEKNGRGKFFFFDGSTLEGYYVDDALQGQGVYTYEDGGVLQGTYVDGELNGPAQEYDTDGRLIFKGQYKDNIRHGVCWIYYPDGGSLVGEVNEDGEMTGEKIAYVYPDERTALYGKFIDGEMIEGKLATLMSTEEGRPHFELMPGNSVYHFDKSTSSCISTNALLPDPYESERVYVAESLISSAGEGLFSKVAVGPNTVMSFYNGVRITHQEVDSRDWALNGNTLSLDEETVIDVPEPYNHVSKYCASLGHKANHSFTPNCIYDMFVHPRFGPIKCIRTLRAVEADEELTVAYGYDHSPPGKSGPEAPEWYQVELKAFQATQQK
Protocol: Methods: Carboxymethyl cellulose-purified SAM, SAH (Cayman Catalog #700145), and sinefungin were diluted in a semi-Log manner in FP buffer (Cayman Catalog #600028). Five microliters of these dilutions were added to the wells of a low-volume, black, 384-well plate (Nunc #264705). […] The assay was allowed to equilibrate at room temperature for 30 minutes in the dark. Fluorescence polarization was measured as above. The experiment was performed two independent times, each in duplicate.

[2] = molecular target: T1, SET7/9; assay: SET7/9 SAM-Screener high-throughput FP assay, Sinefungin Probe 1A displacement; format: binding; conditions: SET7/9; sinefungin 50 μM; SAM
Protocol: Methods: A collection of 14,400 compounds from the Maybridge HitFinder collection of compounds was assayed for the displacement of Sinefungin Probe 1A from SET7/9 in a high-throughput manner using the SET7/9 SAM-Screener FP assay Cayman Catalog Item #600490). Thirty microliters of assay buffer (50 mM Tris pH 8.0, 50 mM KCl, 5 mM CHAPS, 2 mM DTT) was added to every well of a black 384-well polystyrene microtiter plate (Thermo-Fisher 364576). To every well, excluding control wells, was added one microliter of a DMSO solution containing a test compound. Control wells received either 1 μl DMSO or 1 μl of a sinefungin solution. The final concentration of sinefungin control or test compounds in the assay was 50 μM or 10 μM, respectively. To every well of the plate was added 10 μl of a SET7/9 solution to give a final assay concentration of 30 nM. After a 15-minute incubation at ambient temperature, 10 μl of Sinefungin Probe 1A solution was added to every well to give a final assay concentration of 10 nM in a total assay volume of 50 μl Samples were analyzed using a Biotek Synergy H4 plate reader in fluorescence polarization mode after a 30-minute incubation at ambient temperature in the dark. Data were analyzed using GeneData (v. 9.01). […]

[3] = molecular target: T1, SET7/9; assay: Fluorescence polarization saturation binding of fluorescent probe to SET7/9; conditions: FIG. 11A, FIG. 12
Protocol: Methods: The experiment was performed once, with two replicate wells for all methyltransferases per condition. The sole exception to this is NSD2 (see details below). The assay was performed in a ½ area, black, 96-well plate (Corning #3686) in a final volume of 30 μL. Methyltransferases (Table 1) were serially diluted two-fold in FP buffer (Cayman Catalog #600028) and 15 μL of a given dilution were added per well to the assay plate. Fifteen microliters of sinefungin probe 1A (10 nM) were added to each well, giving a final sinefungin probe 1A concentration of 5 nM. This concentration of sinefungin probe 1A was chosen because it had at least a 10-fold increase in fluorescence (excitation max 575 nm/emission max 615 nm) over background (buffer). The mixture was incubated in the dark at room temperature for 30 minutes and its fluorescence polarization was read using a BioTek Synergy 4.

[4] = molecular target: T1, SET7/9; assay: Sinefungin Probe 1B displacement FP assay with SET7/9 (Epigenetics Screening Library profiling); format: binding; conditions: SET7/9, FIG. 11B
Protocol: Profiling of a pre-production version of the Cayman Chemical Epigenetics Screening Library (Cayman Catalog Item #11076) against SET7/9 and GLP was performed in a similar manner using Sinefungin Probe 1B. For GLP, the enzyme concentration was raised to 500 nM to produce a robust signal:noise ratio. Data were analyzed in GraphPad Prism (v. 5.04) and/or GeneData (v. 9.01).
An analog of Sinefungin Probe 1A, Sinefungin Probe 1B, wherein the hexyl portion of the linker moiety is replaced with PEG3 and the Cal Fluor® Red 610 fluorophore moiety is replaced with the “Fluor585” (Texas Red)-derived fluorophore moiety, was tested for the ability to bind several methyltransferases, including SET7/9. […] Similar data have been observed for GLP and G9a.

[5] = 30 nM SET7/9, 10 nM Sinefungin Probe 1A, FIG. 3

SMILES: Nc1ncnc2c1ncn2[C@@H]1O[C@H](CSCC[C@H](N)C(=O)O)[C@@H](O)[C@H]1O [SAH, S-adenosylhomocysteine]
competition with probe binding [1, 5]: did not compete with probe binding at concentrations below 1 μM

IC50 [1, 5]: 130 nM | inhibition of probe binding (controls) [2]: fully inhibits probe binding
SMILES: C[S+](CC[C@H](N)C(=O)O)C[C@H]1O[C@@H](n2cnc3c(N)ncnc32)[C@H](O)[C@@H]1O (stereo partly shown) [SAM, S-Adenosylmethionine, reference compound]

affinity for SET7/9 compared with the other sinefungin probes [3]: essentially identical affinities
SMILES: Nc1ncnc2c1ncn2[C@@H]1O[C@H](C[C@@H](N)CC[C@H](N)C(=O)O)[C@@H](OCc2cnnn2CCCCCCNC(=O)OC2CCN(C(=O)c3ccccc3C3=c4cc5c6c(c4Oc4c3cc3c7c4CCCN7CCC3)CCC[N+]=6CCC5)CC2)[C@H]1O [Sinefungin Probe 1B]

SMILES: Nc1ncnc2c1ncn2[C@@H]1O[C@H](C[C@@H](N)CC[C@H](N)C(=O)O)[C@@H](O)[C@H]1O [sinefungin, Sinefungin]
IC50 [1, 5]: 220 nM | Ki ([1]; SET7/9, read-out: Ki for displacement of Sinefungin Probe 1A): 168 nM | Ki [4]: 120 nM
